Test results published in patent US7531540B2, “Phthalazinone-piperidino-derivatives as PDE4 inhibitors” (Nycomed GmbH, priority 2001, dated 2009).

How the values were obtained:
PDE4 = assay: Inhibition of PDE4 activity ([3H]cAMP hydrolysis, cytosol from human neutrophils); assay type: biochemical; conditions: 0.5 μM cAMP, Motapizone (1 μM) included to suppress PDE3 activity, 15 min at 37° C.
Procedure: Method for Measuring Inhibition of PDE4 Activity
PDE4 activity was determined as described by Thompson et al. (Adv Cycl Nucl Res 10: 69-92, 1979) with some modifications (Bauer and Schwabe, Naunyn-Schmiedeberg's Arch Pharmacol 311: 193-198, 1980). At a final assay volume of 200 μl (96 well microtiter plates) the assay mixture contained 20 mM Tris (pH 7.4), 5 mM MgCl2, 0.5 μM cAMP, [^3H]cAMP (about 30,000 cpm/assay), the test compound and an aliquot of cytosol from human neutrophils which mainly contains PDE4 activity as described by Schudt et al. (Naunyn-Schmiedeberg's Arch Pharmacol 344: 682-690, 1991); the PDE3-specific inhibitor Motapizone (1 μM) was included to suppress PDE3 activity originating from contaminating platelets. Serial dilutions of the compounds were prepared in DMSO and further diluted 1:100 (v/v) in the assays to obtain the desired final concentrations of the inhibitors at a DMSO concentration of 1% (v/v) which by itself only slightly affected PDE4 activity.
After preincubation for 5 min at 37° C., the reaction was started by the addition of substrate (cAMP) and the assays were incubated for further 15 min at 37° C. 50 μl of 0.2 N HCl was added to stop the reaction and the assays were left on ice for about 10 min. Following incubation with 25 μg 5′-nucleotidase (Crotalus atrox snake venom) for 10 min at 37° C., the assays were loaded on QAE Sephadex A-25 (1 ml bed volume). The columns were eluted with 2 ml of 30 mM ammonium formiate (pH 6.0) and the eluate was counted for radioactivity. Results were corrected for blank values (measured in the presence of denatured protein) which were below 5% of total radioactivity. […] The IC50 -values for the compounds according to the invention for the inhibition of the PDE4 activity were determined from the concentration-inhibition curves by nonlinear-regression.
The inhibitory values determined for the compounds according to the invention follow from the following table A, in which the numbers of the compounds correspond to the numbers of the examples.

melting point [°C] | SMILES | Inhibition of PDE4 acitivity [measured as -logIC50 (mol/l)] (PDE4)
264 to 267 | COc1ccc(C2=NN(C3CCN(Cc4ccc5ccc(=O)oc5c4)CC3)C(=O)[C@@H]3CC=CC[C@H]23)cc1OC.Cl [compound 18, (4aS,8aR)-4-(3,4-Dimethoxyphenyl)-2-[1-(2-oxo-2H-chromen-7-ylmethyl)-piperidin-4-yl]-4a,5,8,8a-tetrahydro-2H-phthalazin-1-one hydrochloride] | 10.32
214 to 216 | COc1ccc(C2=NN(C3CCN(Cc4ccccn4)CC3)C(=O)[C@@H]3CC=CC[C@H]23)cc1OC.Cl.Cl [compound 24, (4aS,8aR)-4-(3,4-Dimethoxy-phenyl)-2-(1-pyridin-2-ylmethyl-piperidin-4-yl)-4a,5,8,8a-tetrahydro-2H-phthalazin-1-one dihydrochloride] | 10.63
